Key:
Format in all cases: cell-based
bifidobacteria [1] = assay: Experimental Example 1-2: addition test of amino acid and fructo-oligosaccharide to human feces suspension; conditions: amino acid added together with 0.5% FOS, anaerobic culture 4 days, quantitative PCR, compared with FOS alone
Protocol: (§1) Thereafter, 10 ml of each solution was dispensed into glass vials and the glass vials were sterilized by autoclave, made anaerobic, and sealed with a butyl rubber stopper. The feces suspension was prepared by collecting about 10 g of feces from 3 healthy individuals (one man and two women) in their 20s to 40s and suspending same in 80 ml of anaerobic PBS. The feces suspension was added to each vial by 0.5 ml, placed in an incubator at 37° C., and anaerobically cultured for 4 days with tumble blending once per day. After completion of the culture, an intestinal bacterial pellet was obtained from the entire amount of the culture medium by centrifugation (8,000×g, 5 min). DNA was extracted from this pellet using ISOFECAL for BeadsBeat (manufactured by NIPPON GENE CO., LTD.), and quantitative PCR was performed using GeneAce SYBR qPCR Mix α (manufactured by NIPPON GENE CO., LTD.). Quantitative PCR was performed under the conditions of 45 cycles of 95° C. for 30 sec and 60° C. for 60 sec after 95° C. for 10 min. Primers for quantitative PCR used for detection bifidobacteria are as follows:
The PBS solutions for the Examples and Comparative Examples shown in Table 1-2 were prepared and used as media for a feces culture. […]
(§2) Using the results obtained by quantitative PCR, the relative amount when the control is 1 was calculated, and the results were normalized with z-score.

bifidobacteria [2] = assay: Experimental Example 1-1: addition test of amino acid and fructo-oligosaccharide to human feces suspension; conditions: amino acid added together with 0.5% FOS, anaerobic culture 4 days at 37° C., quantitative PCR, compared with FOS alone
Protocol: The PBS solutions for the Examples and Comparative Examples shown in Table 1-1 were prepared and used as media for a feces culture. PBS alone was used as a control. Fructo-oligosaccharide (FOS) manufactured by Wako Pure Chemical Industries, Ltd. (#064-02385) was used.
as §1, §2

bifidobacteria [3] = assay: Experimental Example 2: addition test of amino acid and galacto-oligosaccharide to human feces suspension; conditions: amino acid added together with 0.5% GOS, anaerobic culture 4 days, quantitative PCR, compared with GOS alone
Protocol: as §1
The PBS solutions for the Examples and Comparative Examples shown in Table 2 were prepared and used as media for a feces culture. […]
as §2

Row | Structure (SMILES) | proliferation of bifidobacteria (bifidobacteria [1]) | proliferation of bifidobacteria (bifidobacteria [2]) | proliferation of bifidobacteria (bifidobacteria [3])
1 | O=C(O)[C@@H]1CCCN1 [Pro, L-proline] | greater proliferation of bifidobacteria than that with FOS alone | – | –
2 | NC(=O)CC[C@H](N)C(=O)O [Gln, L-glutamine] | – | greater proliferation of bifidobacteria than that with FOS alone | –
3 | N[C@@H](Cc1c[nH]cn1)C(=O)O [His, L-histidine] | greater proliferation of bifidobacteria than that with FOS alone | – | –
4 | C[C@H](N)C(=O)O [Ala, L-alanine] | – | greater proliferation of bifidobacteria than that with FOS alone | –
5 | CC[C@H](C)[C@H](N)C(=O)O [Ile, L-isoleucine] | – | greater proliferation of bifidobacteria than that with FOS alone | –
6 | CC(C)[C@H](N)C(=O)O [Val, L-valine] | – | greater proliferation of bifidobacteria than that with FOS alone | –
7 | NCCCC[C@H](N)C(=O)O [Lys, L-lysine] | – | greater proliferation of bifidobacteria than that with FOS alone | greater proliferation of bifidobacteria than that with GOS alone
8 | N[C@@H](CCC(=O)O)C(=O)O [Glu, L-glutamic acid] | – | greater proliferation of bifidobacteria than that with FOS alone | greater proliferation of bifidobacteria than that with GOS alone
